# Measurements as given in US3982931A, “N,N-di-sec.butyl-benzamide herbicides” (priority 1967, dated 1976).
# What was measured:
# [1] = tested on: artemisia vulgaris L.; assay: herbicidal activity, soil treatment one day after sowing; assay type: in vivo
# [2] = tested on: rice; assay: Example 2 basin test, rice-field soil, granular composition; assay type: in vivo; details: 4 - 6 - 8 kg/ha
# Description: (§1) Into 2 sq.m. basins containing rice-field soil were sown rice and Echinocloa crus-galli. After having submerged the soil with 10 cm of water, treatments were carried out by distributing uniformly on the soil a granular composition containing 5% of PA 300 and 95% of bentonite in doses equal to 0 - 4 - 6 - 8 kg of active principle per hectar.
# [3] = tested on: Echinocloa crus-galli; assay: as above; assay type: in vivo; details: 4 - 6 - 8 kg/ha
# Description: as §1
# [4] = tested on: vicia sativa L.; assay: herbicidal activity, soil treatment one day after sowing; assay type: in vivo
# Summary of the method: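 Pre-emergence soil treatment one day after sowing; activity scored visually on a […] scale against untreated control, from slight difference (1) to no germination or total containment at emergence (4); intermediate activity recorded as both classes, preeminent value first.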
# [5] = tested on: chenopodium album L.; assay: as above; assay type: in vivo
# [6] = tested on: avena sativa (oats); assay: activity on agrarian species, soil treatment one day after sowing; assay type: in vivo, Avena sativa L.
# [7] = tested on: zea mais L. (corn); assay: as above; assay type: in vivo
# Summary of the method: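 Pre-emergence soil application one day after sowing at 1, 3, 6, 8, 10, 12 and 14 kg/ha. Crop damage scored visually against untreated control on a 0–4 scale (0 = no effect, 4 = no germination or total containment at emergence); intermediate effects recorded with both scores.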
# [8] = tested on: amaranthus retroflexus L.; assay: herbicidal activity, soil treatment one day after sowing; assay type: in vivo
# [9] = tested on: setaria glauca L.; assay: as above; assay type: in vivo
# [10] = tested on: pisum sativum L. (pea); assay: activity on agrarian species, soil treatment one day after sowing; assay type: in vivo
# [11] = tested on: oryza sativa L. (rice); assay: as above; assay type: in vivo
# Summary of the method: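 Pre-emergence soil treatment of rice applied one day after sowing at 1, 3, 6, 8, 10, 12 and 14 kg/ha. Crop injury scored against untreated control on a 0–4 scale, 4 being no germination or total containment at emergence; intermediate activity recorded as both adjacent classes.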
# [12] = tested on: phaseolus vulgaris (bean); assay: as above; assay type: in vivo, Phaseolus vulgaris L.
# Summary of the method: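 Product applied to soil one day after sowing at 1, 3, 6, 8, 10, 12 and 14 kg/ha. Effect on bean plants scored against control on a 0–4 scale, 4 meaning no germination or total containment at emergence; intermediate activity recorded with both values.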
# [13] = tested on: triticum vulgare L. (wheat); assay: as above; assay type: in vivo
# Summary of the method: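 Pre-emergence soil treatment one day after sowing of wheat, product applied at 1, 3, 6, 8, 10, 12 and 14 kg/ha. Activity scored visually on a 0–4 scale relative to untreated control (0 = none, 4 = no germination/total containment); intermediate activity recorded as both values.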
# [14] = tested on: echinocloa crus-galli R.S.; assay: herbicidal activity, soil treatment one day after sowing; assay type: in vivo
# [15] = toxicity towards warm-blooded animals, LD 50 per os on rat; details: in vivo, po
structure (smiles),measurement,setting,value
"CCC(C)N(C(=O)c1cc(Cl)cc(Cl)c1Cl)C(C)CC (stereo not drawn) [PA300, 2,3,5-trichloro-N,N-di-sec.butyl-benzamide]","activity on B, 0-4 scale",[1]; 1 kg/ha,0-1
same,"activity on B, 0-4 scale",[1]; 2 kg/ha,1-0
same,"activity on B, 0-4 scale",[1]; 4 kg/ha,1
same,"activity on B, 0-4 scale",[1]; 6 kg/ha,1
same,development of rice,[2],the rice developed regularly
same,development of Echinocloa crus-galli plants,[3],no Echinocloa crus-galli plant developed
same,"activity on F, 0-4 scale",[4]; 1 kg/ha,0
same,"activity on F, 0-4 scale",[4]; 2 kg/ha,0
same,"activity on F, 0-4 scale",[4]; 4 kg/ha,0
same,"activity on F, 0-4 scale",[4]; 6 kg/ha,0
same,"activity on C, 0-4 scale",[5]; 1 kg/ha,0-1
same,"activity on C, 0-4 scale",[5]; 2 kg/ha,1
same,"activity on C, 0-4 scale",[5]; 4 kg/ha,1-2
same,"activity on C, 0-4 scale",[5]; 6 kg/ha,1-2
same,"activity on G, 0-4 scale",[6]; 3 kg/ha,0
same,"activity on G, 0-4 scale",[6]; 6 kg/ha,1
same,"activity on O, 0-4 scale",[7]; 3 kg/ha,0
same,"activity on O, 0-4 scale",[7]; 6 kg/ha,0
same,"activity on A, 0-4 scale",[8]; 1 kg/ha,0-1
same,"activity on A, 0-4 scale",[8]; 2 kg/ha,1
same,"activity on A, 0-4 scale",[8]; 4 kg/ha,1
same,"activity on A, 0-4 scale",[8]; 6 kg/ha,1
same,"activity on E, 0-4 scale",[9]; 1 kg/ha,3-4
same,"activity on E, 0-4 scale",[9]; 2 kg/ha,4-3
same,"activity on E, 0-4 scale",[9]; 4 kg/ha,4
same,"activity on E, 0-4 scale",[9]; 6 kg/ha,4
same,"activity on L, 0-4 scale",[10]; 3 kg/ha,0
same,"activity on L, 0-4 scale",[10]; 6 kg/ha,0
same,"activity on P, 0-4 scale",[11]; 3 kg/ha,0
same,"activity on P, 0-4 scale",[11]; 6 kg/ha,0
same,"activity on I, 0-4 scale",[12]; 3 kg/ha,0
same,"activity on I, 0-4 scale",[12]; 6 kg/ha,0
same,"activity on N, 0-4 scale",[13]; 3 kg/ha,0
same,"activity on N, 0-4 scale",[13]; 6 kg/ha,0
same,"activity on D, 0-4 scale",[14]; 1 kg/ha,3
same,"activity on D, 0-4 scale",[14]; 2 kg/ha,3-4
same,"activity on D, 0-4 scale",[14]; 4 kg/ha,4-3
same,"activity on D, 0-4 scale",[14]; 6 kg/ha,4
"CCC(C)N(CC)C(=O)c1ccc(Cl)c(Cl)c1 (stereo not drawn) [PA631, 3,4-dichloro-N-ethyl,N-sec.butyl-benzamide]","activity on B, 0-4 scale",[1]; 6 kg/ha,2
same,"activity on F, 0-4 scale",[4]; 6 kg/ha,0-1
same,"activity on C, 0-4 scale",[5]; 6 kg/ha,3
same,"activity on A, 0-4 scale",[8]; 6 kg/ha,2
same,"activity on E, 0-4 scale",[9]; 6 kg/ha,3
same,LD50,[15],930 mg/kg
same,"activity on D, 0-4 scale",[14]; 6 kg/ha,3
